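Dose response: 5 concentrations. Exposure: 48 h. Format: 96-well plates. Endpoint: linear interpolation; highest concentration if not reached. GI50 = concentration required for 50% inhibition of growth. At the TGI there is no net growth.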
How the values were obtained:
Assay in all cases: DTP human tumour cell line panel, 48 h
[1] = test system: HCT-15 colon
[2] = test system: DU-145 prostate
[3] = test system: SK-OV-3 ovarian
[4] = test system: HT29 colon
[5] = test system: NCI-H23 lung
[6] = test system: SF-539 CNS
[7] = test system: KM12 colon
[8] = test system: HCT-116 colon
[9] = test system: OVCAR-3 ovarian
[10] = test system: MOLT-4 leukemia
[11] = test system: HOP-92 NSCLC
[12] = test system: SNB-19 CNS
[13] = test system: ACHN renal
[14] = test system: MDA-MB-231 breast
[15] = test system: SK-MEL-28 melanoma
[16] = test system: M14 melanoma
[17] = test system: NCI-H460 lung
[18] = test system: HL-60(TB) leukemia
[19] = test system: RPMI-8226 leukemia
[20] = test system: NCI/ADR-RES ovarian
[21] = test system: PC-3 prostate
[22] = test system: SNB-75 CNS
[23] = test system: HOP-62 NSCLC
[24] = test system: LOX IMVI melanoma
[25] = test system: TK-10 renal
[26] = test system: UO-31 renal
[27] = test system: U251 CNS
[28] = test system: EKVX NSCLC
[29] = test system: 786-0 renal
[30] = test system: K-562 leukemia
[31] = test system: OVCAR-4 ovarian
[32] = test system: SF-295 CNS
[33] = test system: T-47D breast
[34] = test system: BT-549 breast
[35] = test system: UACC-257 melanoma
[36] = test system: A549 NSCLC
[37] = test system: CAKI-1 renal
[38] = test system: OVCAR-5 ovarian
[39] = test system: HCC-2998 colon
[40] = test system: HS 578T breast
[41] = test system: SF-268 CNS
[42] = test system: UACC-62 melanoma
[43] = test system: MCF7 breast
[44] = test system: CCRF-CEM leukemia
[45] = test system: MDA-MB-435
[46] = test system: SK-MEL-5 melanoma
[47] = test system: IGROV1 ovarian

CCCCCn1c(C)cc(/C=C\c2ccc3cc(C)ccc3[n+]2C)c1C
GI50 [1]: 490 nM
TGI [1]: 1900 nM
GI50 [2]: 58.6 nM
TGI [2]: 1300 nM
GI50 [3]: 124 nM
TGI [3]: 853 nM
GI50 [4]: 64.5 nM
TGI [4]: 1190 nM
GI50 [5]: 41.4 nM
TGI [5]: 1100 nM
GI50 [6]: 241 nM
TGI [6]: 1060 nM
GI50 [7]: 83.6 nM
TGI [7]: 1210 nM
GI50 [8]: 34.3 nM
TGI [8]: 1090 nM
GI50 [9]: 79.3 nM
TGI [9]: 911 nM
GI50 [10]: 76.9 nM
TGI [10]: 327 nM
GI50 [11]: 109 nM
TGI [11]: 487 nM
GI50 [12]: 123 nM
TGI [12]: 1510 nM
GI50 [13]: 239 nM
TGI [13]: 1150 nM
GI50 [14]: 329 nM
TGI [14]: 1710 nM
GI50 [15]: 339 nM
TGI [15]: 1710 nM
GI50 [16]: 253 nM
TGI [16]: 1380 nM
GI50 [17]: 113 nM
TGI [17]: 839 nM
GI50 [18]: 29.6 nM
TGI [18]: 128 nM
GI50 [19]: 20.2 nM
TGI [19]: 322 nM
GI50 [20]: 2110 nM
TGI [20]: > 34.4 µM
GI50 [21]: 62.3 nM
TGI [21]: 1030 nM
GI50 [22]: 79.1 nM
TGI [22]: 975 nM
GI50 [23]: 283 nM
TGI [23]: 980 nM
GI50 [24]: 95.1 nM
TGI [24]: 1850 nM
GI50 [25]: 157 nM
TGI [25]: 890 nM
GI50 [26]: 212 nM
TGI [26]: 502 nM
GI50 [27]: 34.5 nM
TGI [27]: 1520 nM
GI50 [28]: 275 nM
TGI [28]: 2430 nM
GI50 [29]: 219 nM
TGI [29]: 1170 nM
GI50 [30]: 34.1 nM
TGI [30]: 1110 nM
GI50 [31]: 68.3 nM
TGI [31]: 1510 nM
GI50 [32]: 98.2 nM
TGI [32]: 595 nM
GI50 [33]: 29.9 nM
TGI [33]: 751 nM
GI50 [34]: 69.9 nM
TGI [34]: 664 nM
GI50 [35]: 367 nM
TGI [35]: 1450 nM
GI50 [36]: 55.7 nM
TGI [36]: 970 nM
GI50 [37]: 164 nM
TGI [37]: 675 nM
GI50 [38]: 313 nM
TGI [38]: 1410 nM
GI50 [39]: 143 nM
TGI [39]: 1510 nM
GI50 [40]: 166 nM
TGI [40]: 1750 nM
GI50 [41]: 252 nM
TGI [41]: 1410 nM
GI50 [42]: 243 nM
TGI [42]: 1100 nM
GI50 [43]: 199 nM
TGI [43]: 1040 nM
GI50 [44]: 35.4 nM
TGI [44]: 601 nM
GI50 [45]: 116 nM
TGI [45]: 1090 nM
GI50 [46]: 80.1 nM
TGI [46]: 219 nM
GI50 [47]: 38.6 nM
TGI [47]: 1110 nM
